Measurements reported in patent US20100150999A1, “THERAPY OF CANCER BASED ON TARGETING ADAPTIVE, INNATE AND/OR […] OF THE IMMUNE RESPONSE” (priority 2006, published 2010).

Key:
[1] = tested on: regulatory T cells, myeloid cells, NK cells, tumor-specific CD8+ T cells; assay: Flow cytometric analysis of immune cells in spleen, draining lymph nodes and tumor after treatment; type: in vivo, mice
Procedure: FIG. 9. Changes in immune cells after tritherapy on day 25. […] Groups of mice were sacrificed before treatment (day 0), 24 hour after CTX alone (day 1) or on days 4, 7 or 11 after tritherapy administration. Spleen, tumor draining lymph nodes and tumor were excised, ground to prepare the cell suspensions, stained and analyzed by flow cytometry. Pooled data of two experiments are shown (n=4-6 mice). Bars represent mean values and the error bars correspond to standard error of the mean. *<0.05 **<0.01. A) Percentage of CD4^+ cells that express CD25 and FoxP3. B) Percentage of CD4^+ cells that are CD25^− and FoxP3^+. C) Percentage of CD4^+ cells that express FoxP3. D) Percentage of CD8^+ cells that are tetramer^+ and CD44^+. E) Percentage of CD11c+ cells. F) Percentage of CD11 b^+ cells. G) Percentage of GR1+ cells. H) Percentage of CD11 b^+ GR1+ positive cells.
FIG. 11. Phenotype of myeloid cells induced by tritherapy and by tumor growth. […] Tritherapy treated mice received on day 24, 2.5 mg CTX i.p and 24 h later, 50 μg CyaA-E7 and 30 μg CpG-B/DOTAP. PBS treated mice received 200 μl of PBS on day 25. […] Spleens were excised, ground to prepare the cell suspensions, stained and analyzed by flow cytometry. […]
FACScalibur (Becton Dickinson, Franklin Lakes, N.J., USA) was used for flow cytometry and events were analyzed with CELLQuest software (Becton Dickinson, Franklin Lakes, N.J., USA).

[2] = tested on: TC-1 cells expressing HPV16-E6 and HPV16-E7; assay: TC-1 tumor model in C57BL/6 mice (tumor growth, eradication, survival); type: in vivo; conditions: for Effect on tumor growth: large TC-1 tumors, treated day 24/25
Procedure: TC-1 cells expressing HPV16-E6 and HPV16-E7 proteins derived from primary mouse lung epithelial cells were obtained from the American Type Culture Collection (LGC Promochem, Molsheim, France) (14). EL4-E7 cells, a mouse lymphoma expressing HPV16-E7 (15). Cells were maintained in RPMI 1640 with GlutaMAX supplemented with 10% heat-inactivated fetal calf serum, 100 units/ml penicillin, 100 μg/ml streptomycin, 0.4 mg/ml geneticin and 5×10^−5 mol/l 2-mercaptoethanol (Life Technologies, Cergy-Pontoise, France).
Thirty μg of CpG ODNs or pU were diluted in 50 μl of Optimen medium (Gibco, Grand Island, N.Y., USA) and mixed with 60 μg of DOTAP (Roche, Mannheim, Germany) diluted in 100 μl of Optimen. The rest of the reagents were diluted in PBS before injection. Cyclophosphamide (CTX) (Sigma, Steinheim, Germany) and doxorubicin (DOX) (Calbiochem, La Jolla, Calif., USA) were diluted respectively in PBS and in sterile water before injection. The different antigenic formulations and adjuvants were injected simultaneously except chemotherapeutic agents that were given 24 h before vaccine. Intravenous administrations were performed by retroorbital injection in a volume of 200 μl, intratumoral administrations were done by injection in a volume of 50 μl and subcutaneous administration were performed in 200 μl.
Tumor growth data were analyzed by non-linear mixed effect models using Monolix software (http://www.math.u-psud.fr/˜lavielle/monolix/). Mean diameters of tumors over time were fitted using the model described in (17) and treatments were compared using the Likelihood Ratio test. Kaplan-Meier plots were used to analyzed survival, and a log rank test was used to examine statistical significance of differences in the survival curves using Prism software (GraphPad Software, Inc. San Diego, USA). Data from in vivo CTL and tetramer staining were compared by ANOVA followed by Dunnett posttest. p values less than 0.05 were considered to be statistically significant.

TC-1 cells = conditions: RAG1-/- mice, 2.5 mg CTX i.p. day 24
Procedure: Specific pathogen-free 5-week-old female C57BL/6 mice were purchased from Charles River (L'Arbresle, France) and were kept in the Pasteur Institute animal facilities under pathogen-free conditions with water and food ad libitum. C57BL/6-RAG1^−/− mice were obtained from the Jackson Laboratory, USA. Experiments involving animals were conducted according to the institutional guidelines for animal care.
Tumor cells lines (5×10^5 TC-1 cells or 4×10^6 EL4-E7 cells) were inoculated into the shaved left back of C57BL/6 mice in 200 μl volume of PBS.

| Compound | Percentage of CD25+FoxP3+/CD4+ in tumor-infiltrated lymphocytes ([1]; four days after administration, from around 50%) | Lymphodepletion ([1]; spleen and lymph node, TC-1 tumor-bearing mice) | Effect on tumor growth [2] | Effect on tumor growth ([2]; listed as cyclophosphamide) | Induction of tumor regression / complete eradication ([2]; without CyaA-E7, treated day 24/25) | Tumor growth delay (TC-1 cells) |
| --- | --- | --- | --- | --- | --- | --- |
| O=P1(N(CCCl)CCCl)NCCCO1 (stereo not shown) [CTX, Cyclophosphamide] | below 30% | transient lymphodepletion in spleen and lymph node that reverted by day 7 | significantly delayed tumor growth | transiently control tumor growth | not able to induce the complete eradication | not observed |
| polyinosinic-polycytidylic acid [PIC] | – | – | none of these TLR ligands administered alone had any effect on the tumor growth | – | – | – |
